Test results from US7807617B2, “Peptide inhibitors of toxins derived from LL-37” (priority 2003, dated 2010).
“And” between values parts separate entries of the source, which are not always exact repeats. Identical values can stand only once.

How the values were obtained:
[1] = test system: peripheral blood mononuclear cells (PBMC); assay: γ-IFN Elispot assay (cytokine secretion); assay type: cell-based; details: for γ-IFN Elispot: fraction of positive stimulation indices (positive: >2), PBMC, 48 hours of culture
Procedure: (§1) The compounds prepared according to example 1 were tested for their therapeutically undesirable immunogenic activity by using Elispot, T-cell proliferation, ERK-activation, and neutrophil chemotaxis assays. The Elispot assay is applicable to determine effects of drugs, chemicals or other compounds on cytokine secretion in vitro, thereby providing data on their putative modulatory effects on immune function in vivo. The results of the assay are given as fraction of positive responses to IFN-gamma. […] Cytokines are direct mediators of inflammation and influence the progress and direction of many immunological reactions. Perturbation of the balance in cytokine production is widely recognized as a critical factor in several disease states. This balance is already disturbed in the case of conditions such as otitis media with effusion and sinusitis. T cell proliferation is also not favorable in this situation, because this will also stimulate the immune response that is already out of control.
(§2) For T cell proliferation, 150,000 peripheral blood mononuclear cells (PBMC) were cultured in the absence or presence of 10 μg/ml of the compounds for 5 days in 96 well round bottom plates (Costar Inc. Cambridge, Mass.) in a final volume of 150 μl IMDM complete. As a positive control, PBMC were cultured in the presence of 25 U/ml recombinant IL-2. During the final 20 hours of culture, PBMC were pulsed with [3H] thymidine (0.5 microCi/well), after which ^3H-incorporation was measured by liquid scintillation counting. For detection of the T cell cytokines IFN and IL-10 by Elispot analysis, 1.5×10^6 PBMC were cultured in 0.5 ml IMDM complete in the absence or presence of various concentrations of synthetic peptide. As a positive control PBMC were stimulated by 10 μg/ml poke weed mitogen (PWM). After 48 hours of culture, PBMC were harvested by gently rinsing the wells with warm IMDM to collect non-adherent cells, which were washed in a large volume of IMDM. PBMC were subsequently plated on antibody-precoated ELISA plates and cultured for 5 hours in IMDM supplemented with 2% pooled human AB serum at 37° C. 5% CO2, after which the plates were developed according to the manufacturer's protocol (U-CyTech, Utrecht, The Netherlands). Spots were counted on an Olympus microscope and analyzed with Olympus Micro Image 4.0 software (Paes Nederland, Zoeterwoude, The Netherlands). The final results are expressed as fraction of positive stimulation indices (positiv: >2).

[2] = test system: neutrophils isolated from peripheral blood; assay: Neutrophil chemotaxis, modified Boyden chamber; assay type: cell-based; details: percentage neutrophils on the membrane compared to positive control 10^-8 M FMLP; 90 minutes
Procedure: Neutrophils chemotaxis was measured with neutrophils isolated from peripheral blood using Percoll density centrifugation (density: 1.082 g/ml). The cells were resuspended at a concentration of 2.5×10^6 cells/ml in chemotaxis medium (20 mM N-2-hydroxyethylpiperazine-N′-2-ethanesulfonic acid (HEPES buffer) HEPES, 132 mM NaCl, 6 mM KCl, 1.2 mM KH2PO4, 1 mM MgSO4, 5.5 mM glucose, 0.1 mM CaCl2 and 0.5% (wt/vol) human serum albumin [Central Laboratory of the Netherlands Red Cross Blood Transfusion Service (CLB), Amsterdam, The Netherlands] diluted 1:1 with serum-free RPMI. The chemotactic activity of the compounds was assessed using a modified Boyden Camber technique. Briefly, 26 μl stimuli diluted in HEPES buffer was added to the wells of the lower compartment, and 50 μl of neutrophil suspension (2.5×10^6 cells/ml) was added to the upper compartment. The compartments were separated by two filters: a lower filter with a pore size of 0.45 μm (Millipore Products, Bedford, Mass.) and an upper filter with a pore size of 8 μm (Sartorius Filter, San Francisco, Calif.). After incubation for 90 minutes at 37° C., the upper filters were removed, fixed in ethanol-butanol (80:20, vol/vol), and stained with Weigert solution. To determine neutrophil chemotactic activity, neutrophils were counted in six random high-power fields (×400), and the percentage neutrophils on the membrane as compared to the positive control (10^-8 M N-formylmethionyl-leucyl-phenylalanine (FMLP, Sigma) was calculated.

bacterial toxin LPS [3] = assay: LPS neutralization, whole blood (WB) assay; assay type: cell-based; details: ±SD
Procedure: (§3) Compounds prepared according to example 1 were tested for their capability to neutralize the bacterial toxin LPS with a limulus amoebocyte lysate (LAL) assay and with a whole blood (WB) assay. LTA neutralization was also measured with a whole blood assay. Peptide LL-37 was used as a positive control. The peptide concentration whereby 50% LPS is neutralized (50% inhibition) was used as a measure of the peptide's activity. These concentration values were as in table 1. The differences between the compounds within each assay were not statistically significant.

bacterial toxin LPS [4] = assay: LPS neutralization, limulus amoebocyte lysate (LAL) assay; assay type: biochemical; details: ±SD; for 50%-LPS inhibition, Average: average of LAL-assay and WB-assay
Procedure: as §3

lipoteichoic acid (LTA) = assay: LTA neutralization, whole blood (WB) assay; assay type: cell-based; details: ±SD, n = 3
Procedure: as §3

[5] = test system: peripheral blood mononuclear cells (PBMC); assay: T cell proliferation ([3H] thymidine incorporation); assay type: cell-based; details: fraction of positive stimulation indices (positive: >2), 10 μg/ml, 5 days
Procedure: as §1, §2

Skin irritation test = assay type: in vivo, rabbit; details: 0.5 ml peptide solution 2 mg/ml on clipped skin for 4 hours, semi-occlusive; observed 1-72 hours
Procedure: (§4) Compound P60.4Ac was prepared according to example 1 and tested for its tolerability in vivo. More specifically, its potential for causing skin and eye irritation was evaluated in rabbits, whereas its ototoxicity was studied in a guinea pig model. Furthermore, its systemic toxicity was assessed after intravenous administration.
(§5) For the skin and eye irritation tests, three rabbits were exposed to 0.5 ml phosphate buffered peptide solution (2 mg/ml), applied onto clipped skin for 4 hours using a semi-occlusive dressing. Observations were made 1, 24, 48, and 72 hours after exposure. Single samples of 0.1 ml of phosphate buffered (pH7.5) peptide solution (2 mg/ml) were instilled into one eye of each of three rabbits to perform an acute eye irritation/corrosion study. Observations were made 1, 24, 48, and 72 hours after instillation.

[6] = Systemic single and repeated dose toxicity, intravenous; assay type: in vivo, rat; details: rats
Procedure: as §4
The systemic toxicity of P60.4Ac was assessed in a single and repeated dose toxicity study in rats. The peptide was administered daily intravenously in escalating doses. In this phase, the Maximum Tolerated Dose (MTD) was established. Repeated dose toxicity was also studied in the MTD phase. In the dose escalation phase, 9 rats were divided in three groups and received 0.4, 2 or 8 mg/kg/day for two days. Clinical signs were recorded twice daily on days of dosing and one day after dosing, body weights were recorded prior to the first dose and one day after dosing. In the MTD phase, 5 female and 5 male rats received 8 mg/kg/day for 5 following days. Clinical signs were recorded twice daily on days of dosing, body weight on day 1 and 6. Clinical laboratory investigations were performed prior to necropsy. Macroscopy was performed at termination of the MTD phase.

[7] = Ototoxicity, auditory brainstem response (ABR) after round window membrane application; assay type: in vivo, guinea pig; details: for Δ presurgery (ABR threshold change) / ABR treshold (dB): cisplatin 0.66 mg/ml in PBS, P60.4Ac 2 mg/ml in phosphate buffer; for ABR treshold (dB): round window membrane
Procedure: For evaluating the ototoxicity, nine healthy male albino guinea pigs (500-1200 g), free of external ear pathology, were used. Animals were anesthetized with intraperitoneal injections of ketamine 40 mg/kg and rompun 10 mg/kg. After control auditory testing was performed, the auditory bullae were surgically opened to apply a small piece of spongostan to the round window membrane (RWM) and various solutions (approximately 10 μL) were added on the spongostan. The skin was sutured closed and follow-up auditory testing was performed.
The guinea pigs were divided into three groups, each consisting of two animals to be treated and one control animal. Test and control formulations were administered onto the RWM of the right ears, while the left ears remained untreated. […] Group 2 received the peptide (2 mg/ml) in phosphate buffer (pH7.5) and group 3 received the peptide (2 mg/ml) in formulation solution comprising 7% macrogol 10,000 in isotonic sodium chloride solution preserved with 0.02% benzalkonium chloride and 0.1% Na2EDTA, buffered at pH 5.5 with phosphate.
Auditory brainstem response (ABR) was performed prior to drug administration and directly after surgery and 3, 7, 14 and 22 days later, using a computer-based signal averaging system (Tucker-Davis Technology, Alucha, Fla., USA). Guinea pigs were anesthetized and an insert earphone was placed into the external ear canal. […] Ground electrodes were placed over the neck muscles. ABRs were recorded in an electrically shielded, double-walled, radio-frequency-shielded sound chambre in response to 10 ms tone bursts at 1 kHz. Stimulus intensities were measured and expressed as dB. ABR treshold was defined as the lowest intensity capable of eliciting a replicable, visually detectable response. The post-treatment ABR tresholds were compared to pre-treatment ABR tresholds.

[8] = Acute eye irritation/corrosion study; assay type: in vivo, rabbit; details: 0.1 ml peptide solution 2 mg/ml (pH7.5) instilled into one eye
Procedure: as §4, §5

[9] = i.v. 0.4, 2 or 8 mg/kg/day for two days

Row | Substance | γ-IFN Elispot [1] | Chemotaxis (%) [2] [%] | 50%-LPS inhibition, WB-assay (bacterial toxin LPS [3]) [µg/mL] | 50%-LPS inhibition, LAL-assay (bacterial toxin LPS [4]) [µg/mL] | 50%-LPS inhibition, Average (bacterial toxin LPS [4]) [µg/mL] | 50%-LTA inh. (lipoteichoic acid (LTA)) [µg/mL] | T cell proliferation [5] | also measured
1 | IGKEFKRIVQRIKDFLRNLVPRTE [Compound P60.Ac] | 3/8 | 61 ± 36 | 2.4 ± 0.5 | 1.8 ± 0.8 | 2.0 ± 0.8 | 2.1 ± 0.1 | 0/8 | 
2 | IGKEFKRIVQRIKDFLRNLVPRTE [Compound P60] | 1/8 | 76 ± 39 | 1.4 ± 0.1 | 1.5 ± 0.5 | 1.5 ± 0.3 | 2.1 ± 0.7 | 0/8 | 
3 | IGKEFKRIVERIKRFLRELVRPLR [Compound P60.4] | 3/8 | 0 ± 0 | 2.1 ± 0.6 | 1.7 ± 0.6 | 1.8 ± 0.6 | 2.0 ± 1.3 | 0/8 | immune response (summary of table 2) ([1]; compared with natural peptide LL-37): very low immune response
4 | Ac-IGKEFKRIVERIKRFLRELVRPLR-NH2 [Compound P60.4Ac] |  |  |  |  |  |  |  | skin irritation (Skin irritation test): no skin irritation was detectable; clinical signs, body weight, hematology, clinical biochemistry and macroscopic examination, MTD phase ([6]; i.v. 8 mg/kg/day for 5 days): no clear peptide related findings; mortality, MTD phase ([6]; i.v. 8 mg/kg/day for 5 days): no mortality occurred; clinical signs and body weight, dose escalation phase [6, 9]: no clear deviations; mortality, dose escalation phase [6, 9]: no mortality occurred; Δ presurgery (ABR threshold change) ([7]; 3 days): −2 dB; ABR treshold (dB) ([7]; 3 days): 70 dB; Δ presurgery (ABR threshold change) ([7]; 7 days): 0 dB; ABR treshold (dB) ([7]; 7 days): 72 dB; Δ presurgery (ABR threshold change) ([7]; 14 days): −12 dB; ABR treshold (dB) ([7]; 14 days): 60 dB; Δ presurgery (ABR threshold change) ([7]; 22 days after surgery): −7 dB; ABR treshold (dB) ([7]; 22 days): 65 dB; ABR threshold change ([7]; peptide 2 mg/ml in formulation solution (7% macrogol 10,000, isotonic NaCl, benzalkonium chloride, Na2EDTA, pH 5.5), two animals): 2 dB and 1 dB; Δ presurgery (ABR threshold change) ([7]; postsurgery): −2 dB; ABR treshold (dB) ([7]; postsurgery, 1 kHz, one animal per column): 70 dB; redness of the conjunctivae, time to complete resolution after instillation [8]: ≤ 24 h
5 | LL-37 [reference compound] | 4/8 | 84 ± 17 | 1.2 ± 0.2 | 1.3 ± 0.2 | 1.3 ± 0.2 | 1.6 ± 0.5 | 4/8 | 
